Results as given in patent publication US10981913B2, “11C -labeled 06 -benzylguanine, pet probe capable of visualizing 06-methyl guanine methyl-transferase activity, and production method of the same” (NATIONAL CENTER FOR GERIATRICS AND GERONTOLOGY, priority 2016, dated 2021).
Several values for one entry are separate records, joined by “and”; a condition that tells them apart may be missing. Equal values may be shown once. Entries after “also recorded” stand apart in the source; their conditions may differ. Read-outs that look alike come from different tables or passages of the source. Blank lines part the entries; values can stand above or below the compound they belong to.

Experiments:
[1] = Pharmacokinetics test using rats (brain permeability, blood and brain tissue by HPLC); type: in vivo, Sprague-Dawley rats; settings: rat; for concentration at 30 min / Kp at 0.5 h / Kp at 30 min / concentration at 32 min / concentration at 44 min / Kp: Sprague-Dawley, iv; for concentration at 30 min / Kp at 0.5 h / Kp at 30 min / Brain/Plasma ratio / Conc. HPLC (concentration of compound in brain homogenate) / Conc. brain / concentration at 32 min / concentration at 44 min / Kp: 10 mg/kg; for Kp at 30 min / concentration of the compound in the brain based on the total dose: 30 minutes after administration; for Kp at 30 min: read-out: ratio of brain concentration to the concentration in the plasma; for Brain/Plasma ratio / Conc. HPLC (concentration of compound in brain homogenate) / Conc. brain: listed as mMeBG (2); for metabolism after intravenous administration (plasma concentration of compound and metabolites over time): i.v., FIGS. 7 to 9; for Kp: plasma 30 min
Description: Regarding O^6-(3-methylbenzyl) guanine (2) and O^6-(4-methylbenzyl) guanine (3) not labeled with ^11C synthesized by the above method (that is, cold), brain permeability was evaluated by the following method.
After intravenous administration (10 mg/kg) of O^6-(3-methylbenzyl) guanine (2) or O^6-(4-methylbenzyl) guanine (3) to Sprague-Dawley rats, blood and brain tissues were collected after a predetermined time, and analyzed by HPLC.

stability in the plasma = type: in vitro ADME
MGMT = biological target: T1, MGMT (Homo sapiens, UniProt P16455); assay: enzyme inhibitory activity against MGMT using fluorescent labeled oligonucleotide substrates; type: biochemical; settings: FIG. 1
T1 sequence (P16455 1-207): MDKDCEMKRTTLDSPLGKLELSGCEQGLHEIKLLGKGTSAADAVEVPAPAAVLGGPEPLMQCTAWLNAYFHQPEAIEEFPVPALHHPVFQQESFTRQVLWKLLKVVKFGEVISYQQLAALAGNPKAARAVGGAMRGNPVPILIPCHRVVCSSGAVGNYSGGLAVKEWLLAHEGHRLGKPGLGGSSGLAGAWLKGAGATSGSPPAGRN
From the text: The introduction position of the [^11C] methyl group of the benzene ring present in the above-mentioned O^6-benzylguanine (1) was investigated. […] Erickson, K. D. Miller, B. H. Mock, B. E. Glick-Wilsob, W. L. Winkel, K. L. Stone, K. A. Carlson, Synth. Commun. 2003, 33, 941-952.

[2] = i.v. 10 mg/kg, 30 min, under anaesthesia, fasting, individual animals
[3] = i.v. 10 mg/kg, 30 min, under anaesthesia, nonfasting, individual animals
[4] = i.v. 10 mg/kg, 30 min, under nonanaesthesia, fasting, individual animals
[5] = brain homogenate, i.v. 10 mg/kg, under anaesthesia, fasting, read-out: Conc. HPLC (concentration of compound in brain homogenate)
[6] = brain, i.v. 10 mg/kg, under anaesthesia, fasting, read-out: Conc. brain

- concentration at 30 min ([1]; brain homogenate, i.v. 10 mg/kg, 30 min, under anaesthesia, fasting, average, read-out: Conc. HPLC (brain homogenate), Ave.): 513 ng/mL
- concentration at 30 min ([1]; brain homogenate, i.v. 10 mg/kg, 30 min, under anaesthesia, fasting, individual animals, read-out: Conc. HPLC (concentration of compound in brain homogenate)): 568 ng/mL
- concentration at 30 min ([1]; brain homogenate, i.v. 10 mg/kg, 30 min, under anaesthesia, nonfasting, average, read-out: Conc. HPLC (brain homogenate), Ave.): 663 ng/mL
- concentration at 30 min ([1]; brain homogenate, i.v. 10 mg/kg, 30 min, under anaesthesia, nonfasting, individual animals, read-out: Conc. HPLC (concentration of compound in brain homogenate)): 784 ng/mL
- concentration at 30 min ([1]; brain homogenate, i.v. 10 mg/kg, 30 min, under nonanaesthesia, fasting, average, read-out: Conc. HPLC (brain homogenate), Ave.): 523 ng/mL
- concentration at 30 min ([1]; brain homogenate, i.v. 10 mg/kg, 30 min, under nonanaesthesia, fasting, individual animals, read-out: Conc. HPLC (concentration of compound in brain homogenate)): 536 ng/mL
- Kp at 0.5 h ([1]; brain, i.v. 10 mg/kg, 30 min, under anaesthesia, fasting, average, read-out: Brain/Plasma ratio, Ave.): 0.303
- concentration at 30 min ([1]; brain, i.v. 10 mg/kg, 30 min, under anaesthesia, fasting, average, read-out: Conc. brain, Ave.): 1350 ng/mL
- Kp at 0.5 h ([1]; brain, i.v. 10 mg/kg, 30 min, under anaesthesia, fasting, individual animals, read-out: Brain/Plasma ratio): 0.336
- concentration at 30 min ([1]; brain, i.v. 10 mg/kg, 30 min, under anaesthesia, fasting, individual animals, read-out: Conc. brain): 1500 ng/mL
- Kp at 0.5 h ([1]; brain, i.v. 10 mg/kg, 30 min, under anaesthesia, nonfasting (plasma value from anaesthesia, fasting rats), average, read-out: Brain/Plasma ratio, Ave.): 0.373
- Kp at 0.5 h ([1]; brain, i.v. 10 mg/kg, 30 min, under anaesthesia, nonfasting (plasma value from anaesthesia, fasting rats), individual animals, read-out: Brain/Plasma ratio): 0.425
- concentration at 30 min ([1]; brain, i.v. 10 mg/kg, 30 min, under anaesthesia, nonfasting, average, read-out: Conc. brain, Ave.): 1660 ng/mL
- concentration at 30 min ([1]; brain, i.v. 10 mg/kg, 30 min, under anaesthesia, nonfasting, individual animals, read-out: Conc. brain): 1890 ng/mL
- Kp at 0.5 h ([1]; brain, i.v. 10 mg/kg, 30 min, under nonanaesthesia, fasting, average, read-out: Brain/Plasma ratio, Ave.): 0.265
- concentration at 30 min ([1]; brain, i.v. 10 mg/kg, 30 min, under nonanaesthesia, fasting, average, read-out: Conc. brain, Ave.): 1380 ng/mL
- Kp at 0.5 h ([1]; brain, i.v. 10 mg/kg, 30 min, under nonanaesthesia, fasting, individual animals, read-out: Brain/Plasma ratio): 0.27
- concentration at 30 min ([1]; brain, i.v. 10 mg/kg, 30 min, under nonanaesthesia, fasting, individual animals, read-out: Conc. brain): 1400 ng/mL
- Kp at 30 min ([1]; brain, i.v. 10 mg/kg): 0.3
- concentration at 30 min ([1]; plasma, average (n = 3), 30 min after i.v. 10 mg/kg of 2, rat under nonanaesthesia and fasting, other rats than brain sample, read-out: Conc. Plasma): 5190 ng/mL
- concentration at 30 min ([1]; plasma, average (n = 5), 30 min after i.v. 10 mg/kg of 2, rat under anaesthesia and fasting, other rats than brain sample, read-out: Conc. Plasma): 4450 ng/mL
- accumulation in the brain ([1]; i.v. 10 mg/kg): accumulated in the brain
- Brain/Plasma ratio [1, 2]: 0.275 and 0.298
- Conc. HPLC (concentration of compound in brain homogenate) [1, 2]: 464 ng/mL and 507 ng/mL
- Conc. brain [1, 2]: 1223 ng/mL and 1325 ng/mL
- Brain/Plasma ratio ([1]; i.v. 10 mg/kg, 30 min, under anaesthesia, nonfasting (plasma value from anaesthesia, fasting rats), individual animals): 0.398 and 0.296
- Conc. HPLC (concentration of compound in brain homogenate) [1, 3]: 684 ng/mL and 522 ng/mL
- Conc. brain [1, 3]: 1772 ng/mL and 1318 ng/mL
- concentration of the compound in the brain based on the total dose ([1]; i.v. 10 mg/kg): 0.1%
- stability in the plasma (stability in the plasma): stably exist in the plasma
SMILES: Cc1cccc(COc2nc(N)nc3nc[nH]c23)c1 [Compound 2, O^6-(3-methylbenzyl) guanine]
- Brain/Plasma ratio [1, 4]: 0.315 and 0.255 and 0.249 and 0.229 and 0.277
- Conc. HPLC (concentration of compound in brain homogenate) [1, 4]: 635 ng/mL and 474 ng/mL and 481 ng/mL and 454 ng/mL and 555 ng/mL
- Conc. brain [1, 4]: 1634 ng/mL and 1323 ng/mL and 1291 ng/mL and 1188 ng/mL and 1436 ng/mL
- metabolism after intravenous administration (plasma concentration of compound and metabolites over time) [1]: more stable than the compound (3) and was present for a long time
- MGMT inhibitory effect compared with O^6-benzylguanine (1) (MGMT): MGMT inhibitory effect similar to O^6-benzylguanine (1); also recorded: slightly higher inhibitory activity than O^6-BG (1)

- concentration at 32 min [1, 5]: 231 ng/mL
- concentration at 44 min [1, 5]: 118 ng/mL
- Kp at 30 min ([1]; brain, i.v. 10 mg/kg): 0.3
- concentration at 32 min [1, 6]: 959 ng/mL
- concentration at 44 min [1, 6]: 470 ng/mL
- Kp ([1]; brain, i.v. 10 mg/kg, brain 32 min, under anaesthesia, fasting, read-out: Brain/Plasma ratio): 0.386
- Kp ([1]; brain, i.v. 10 mg/kg, brain 44 min, under anaesthesia, fasting, read-out: Brain/Plasma ratio): 0.189
- concentration at 30 min ([1]; plasma, average (n = 3), 30 min after i.v. 10 mg/kg of 3, rat under anaesthesia and fasting, other rats than brain sample, read-out: Conc. Plasma): 2480 ng/mL
- accumulation in the brain ([1]; i.v. 10 mg/kg): accumulated in the brain
- concentration of the compound in the brain based on the total dose ([1]; i.v. 10 mg/kg): 0.1%
- stability in the plasma (stability in the plasma): stably exist in the plasma
SMILES: Cc1ccc(COc2nc(N)nc3nc[nH]c23)cc1 [Compound 3, O^6-(4-methylbenzyl) guanine]
- metabolism after intravenous administration (plasma concentration of compound and metabolites over time) [1]: quickly metabolized to unknown, more polar compounds within 240 minutes
- MGMT inhibitory effect compared with O^6-benzylguanine (1) (MGMT): MGMT inhibitory effect similar to O^6-benzylguanine (1); also recorded: slightly higher inhibitory activity than O^6-BG (1)
